Assay results: the METLIN SMRT retention time set (Domingo-Almenara et al. 2019)

Test: gradient 5% acetonitrile 3 min, to 50% in 2 min, to 85% in 15 min, held 3 min, 100 µL/min
Settings: column: Zorbax Extend-C18 2.1 x 50 mm; eluents: water / acetonitrile, 0.1% formic acid
Summary of the method: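 Values are retention times taken from adduct peaks that software picked and an analyst inspected. The pure standards were run as mixtures of ~100 molecules on HPLC linked to a quadrupole time-of-flight mass spectrometer, in positive and negative ionization mode. A Zorbax Extend-C18 column (2.1 × 50 mm, 1.8 μm) was used at 100 μL/min with water and acetonitrile, each including 0.1% formic acid.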

| Compound | RP-LC retention time |
| --- | --- |
| Cc1nc(NC2=NCN(Cc3cccnc3)CN2)nc2c(C)cccc12 | 592 s |
| CCn1cc(-c2ccc(C)cc2)cc1C(=O)NCCN(C)C | 680 s |
| O=C(O)c1cn(-c2ccc(F)c(Cl)c2)nn1 | 727 s |
| Cc1ccc(-c2noc(Cn3ncn4nc(-c5ccc(C)cc5C)cc4c3=O)n2)cc1 | 1270 s |
| COc1ccc(Nc2c(-c3ccc(SC)cc3)nc3cnc(Br)cn23)cc1OC | 934 s |
| O=C(NCc1ccco1)c1c(-c2ccccc2)nnc2ccccc12 | 756 s |
| CCc1cccc(N2C(=O)CN(S(C)(=O)=O)CC2(C)C(=O)NCc2ccc(F)cc2)c1 (stereo not given) | 847 s |
| CNC(=O)[C@@H]1C[C@@H](O)CN1C1CCN(C(=O)C2CCCCC2)CC1 | 577 s |
| Cc1sc(-c2cc(C(F)(F)F)[nH]n2)cc1S(=O)(=O)N1CC=C(c2ccccc2)CC1 | 1190 s |
| COC(=O)c1cccc(NC(=O)Nc2ccc3c(c2)N(C(=O)c2ccccc2)CC3)c1 | 921 s |
| CCN1CCC2(CC1)N=C(c1ccc(C)cc1C)CC(c1cc(Cl)ccc1O)N2 (stereo not given) | 668 s |
| CCOc1ccc(-c2cc3c(=O)n(Cc4nc(-c5ccccc5Cl)no4)ncn3n2)cc1 | 1150 s |
| CCOc1ccc(CNC(=O)CN2CC=C(c3cnn(-c4ccccc4)c3)CC2)cc1 | 722 s |
| Cc1ccc(CNC(=O)Cc2csc3nc(-c4cccc(Br)c4)cn23)cc1 | 963 s |
| CCOc1ccc(-c2noc(CN3C(=O)COc4cc(Cl)ccc43)n2)cc1 | 1180 s |
| Cc1nn(C(C)C(=O)NCc2ccco2)c(=O)c2nn(-c3ccccc3)c(C)c12 (stereo not given) | 761 s |
| COC(=O)c1cccc(-c2nc(C3CC(=O)N(c4ccc(F)cc4)C3)no2)c1 (stereo not given) | 884 s |
| COc1ccc(N2CCN(C(=O)c3cc4cc5cc(OC)ccc5nc4o3)CC2)cc1 | 829 s |

| Compound | RP-LC retention time |
| --- | --- |
| COC(=O)c1sccc1NC(=O)Cn1c(C)cc(C)c(-c2nc(-c3ccc(F)cc3)no2)c1=O | 1070 s |
| CCn1cc(S(=O)(=O)N2[C@H]3CC[C@@H]2c2cnc(-c4ccc(F)cc4)nc2C3)cn1 | 900 s |
| COc1cc(-c2noc(Cn3cnc4c(cnn4-c4ccccc4)c3=O)n2)cc(OC)c1OC | 920 s |
| CN(C)C(=O)COc1cc(O)c2c(=O)cc(-c3ccccc3)oc2c1 | 832 s |
| CN(C)C(=O)c1ccc2c(c1)nc(CN(C)C(=O)Nc1ccc(Br)cc1)n2C | 628 s |
| O=c1c2cc(-c3ccccc3Cl)nn2cnn1Cc1nc(-c2ccccc2)no1 | 1110 s |
| CCc1nccn1Cc1nc(-c2ccc(OC)cc2)no1 | 620 s |
| O=C(Nc1ncc(S(=O)(=O)c2ccc([N+](=O)[O-])cc2)s1)c1ccccc1F | 866 s |
| Cc1[nH]c(=O)[nH]c(=O)c1CCc1nnc(SCC(=O)c2ccc3c(c2)NC(=O)CO3)o1 | 589 s |
| CCOC(=O)c1oc2ccc(S(=O)(=O)NCC3Cn4cccc4C(=O)N3C)cc2c1C (stereo not given) | 810 s |
| Cc1ccc(-c2noc(CN3C(=O)COc4ccc(Cl)cc43)n2)cc1 | 1150 s |
| CCc1nc(N)n(CC(=O)Nc2ccc(OC)cc2)c(=O)c1C | 650 s |
| COC(=O)c1cccc(N2C=C(C#N)S(=O)(=O)c3c(F)cccc32)c1 | 847 s |
| Cc1cccc(-n2c(=O)c3c(cc(C)n3C)n(CC(=O)Nc3cccc(C(C)C)c3)c2=O)c1 | 626 s |
| CCc1c(C(=O)O)nnn1Cc1ccccc1C | 728 s |
| CCOc1ccccc1NC(=O)Nc1ccc2c(c1)CCN2S(=O)(=O)c1ccccc1 | 1040 s |
| CSc1ccc(NC(=O)CCl)cc1 | 751 s |
| Cc1ccc(CNC(=O)CN2CCN(C(=O)Nc3ccc(Br)cc3)CC2=O)o1 | 748 s |

Other lines, results leading:

| RP-LC retention time | Compound |
| --- | --- |
| 893 s | O=C(NC1CCCCC1)c1cc2c(s1)CCN(C(=O)c1ccc(F)cc1)C2 |
| 511 s | COCc1ncc(C)n1CC1CN(C(=O)c2ocnc2C)C1 |
| 673 s | O=C(CC1=C2CCCCC2NC1=O)NCCc1c[nH]c2ccccc12 (stereo not given) |
| 937 s | CC1CCN(C(=O)CN2C(=O)C3CCCCN3c3ccc(S(=O)(=O)N4CCCC4)cc32)CC1 (stereo not given) |
| 659 s | CC(C)OCCCNC(=O)C1CCN(c2nc3cccnc3s2)CC1 |
| 624 s | CC(C)CN1C(=O)c2cccn2CC1C(=O)N1CCOCC1 (stereo not given) |
| 690 s | CCCCN(C)c1ncc(C(=O)NCc2ccccc2)c(N)n1 |
| 918 s | COC(=O)c1cc(S(=O)(=O)N2CCCC2C(=O)Nc2ccccc2C(F)(F)F)cn1C (stereo not given) |
| 624 s | CCOc1cc(-c2ccc(F)cc2)nc2ccc(C(=O)N3CCN(c4ccccn4)CC3)cc12 |
| 916 s | CCC(C)CNCC(=O)N1CCc2sccc2C1COc1cccc(C)c1 (stereo not given) |
| 772 s | Cc1cccc(CNC(=O)C2(C)Cn3cnc(C(=O)NCc4ccccc4F)c3C(=O)N2C2CC2)c1 (stereo not given) |
| 626 s | CCCN1CCN(C(=O)c2csc(N3CCN(c4ccc(OC)cc4)CC3)n2)CC1 |
| 580 s | CC(C)CN1CCN(C(=O)C2CC(=O)N(CCc3ccccc3)C2)CC1 (stereo not given) |
| 629 s | CCc1nnc(-c2ccc3ccn(CC(=O)NCc4ccccn4)c3c2)o1 |
| 1090 s | CCOc1ccc(S(=O)(=O)N2CCCC(C(=O)Nc3cc(C)ccc3OC)C2)cc1 (stereo not given) |
| 817 s | COc1ncccc1CNS(=O)(=O)c1ccc(C)cc1 |
| 745 s | COc1ccc(N2CCN(c3nc(C)cc(C)n3)CC2)cc1 |
| 1120 s | CC1CCN(S(=O)(=O)c2ccc(-c3nnc(C(=O)NC4CCCCC4)o3)cc2)CC1 |
| 1030 s | Cc1ccc(S(=O)(=O)N2CCC(C)(C(=O)NCc3ccccc3C)CC2)cc1C |
| 656 s | Cc1cc(C)c2c(N3CCCC3)nc(C(=O)Nc3ccc4c(c3)OCO4)nc2n1 |
| 658 s | COCCn1nc2n(c1=O)CCC1(CC2)CCN(C(=O)C2CC=CC2)CC1 |
| 901 s | Cc1ccc(NC(=O)CSc2nc(N3CCCCC3)nc3ccccc23)c(Cl)c1 |
| 775 s | CCc1noc([C@@H]2CC(F)(F)CN2C(=O)CCc2c(C)noc2C)n1 |
| 657 s | CC(C)(C)NC(=O)N1CCC(CNC(=O)c2ccsc2)CC1 |
| 1140 s | CC(C)(C)c1cc(C(=O)NCc2ccc(F)cc2)nc2ccnn12 |
| 674 s | O=C(Cc1nnc2c(-c3nc(C4CC4)no3)cccn12)N1CCCCCC1 |
| 713 s | CC(C(=O)NCCN1CCCCCC1)n1c(=O)c(C(F)(F)F)nc2ccccc21 (stereo not given) |

| RP-LC retention time | Compound |
| --- | --- |
| 784 s | CC(C)CN1C(=O)c2cccn2CC1CNC(=O)CC1CCCC1 (stereo not given) |
| 618 s | COCC(=O)NCC12CCC=C1N(C)C(=O)CC2 (stereo not given) |
| 881 s | COc1ccc(-c2noc(C3CCCN3C(=O)NC3CCCC3)n2)cc1 (stereo not given) |
| 565 s | O=C(NCCCN1CCOCC1)C1CCCN(c2cnc3nccnc3c2)C1 (stereo not given) |
| 790 s | Cc1ccc(C(=O)N2C[C@@H](Oc3ccccc3)C[C@H]2C(=O)NC2CC2)s1 |
| 1070 s | O=C(NCc1ccccc1Cl)C1CCCN(c2nccnc2Sc2ccccc2)C1 (stereo not given) |
| 666 s | CCOc1ccc(NC(=O)Cn2cnc3nc(N4CCCC(C(=O)NC)C4)sc3c2=O)cc1 (stereo not given) |
| 742 s | CCOc1ccc(C(=O)NC2CCN(c3cc(-c4ccc(OC)cc4)[nH]n3)C2)cc1OCC (stereo not given) |
| 628 s | Cc1cnc(C(=O)N2CCC(c3noc(-c4cccnc4)n3)C2)cn1 (stereo not given) |
| 1140 s | CCCC(=O)N1CCc2c([nH]c3ccccc23)C1c1ccc(OCC)cc1 (stereo not given) |
| 836 s | COCCNC(=O)N1c2ccccc2CC1c1nc(C(C)C)no1 (stereo not given) |
| 881 s | CCCn1c(=O)sc2cc(S(=O)(=O)N3CCC(C(=O)N(CC)CC)CC3)ccc21 |
| 596 s | Cc1nc2n(c(=O)c1C)CCN2CC(=O)NCc1ccco1 |
| 886 s | CCCn1cc(S(=O)(=O)Nc2ccc(OC)cc2)c2cccnc21 |
| 816 s | Cc1ccccc1Cn1c(CN2CCC(C(=O)N(C)Cc3ccco3)CC2)cc2ccccc21 |
| 802 s | O=C(NCC(O)C1CCCCC1)c1cccc2ccccc12 (stereo not given) |
| 781 s | O=C(CSC1CCCC1)NCCCC(=O)Nc1cccc2cccnc12 |
| 776 s | Cc1cccc(-n2c(Cc3cccn3C)nnc2SCC(=O)NCC2CCCO2)c1C (stereo not given) |
| 615 s | O=S(=O)(Cc1ccccc1)N1CCC(OC2CCN(Cc3cccnc3)CC2)CC1 |
| 940 s | CC(C)Cn1cc(CCNC(=O)c2cccc(C(F)(F)F)c2)c2cccnc21 |
| 890 s | CCOC(=O)c1nc(Nc2cccc(C)c2)c2ccccc2n1 |
| 637 s | O=C(NC1CCCCC1)C1CCN(c2cncnc2N2CCCC2)CC1 |
| 604 s | Cc1[nH]c(C(=O)N2CCC(CC(=O)NCCN3CCCCC3)CC2)c(C)c1C |
| 660 s | CCc1nc2cc3c(cc2n1CC(=O)Nc1cccc(OC)c1)OCCO3 |
| 1050 s | Cc1nc(-c2csc(S(=O)(=O)N3CCC(C(=O)N4CCc5ccccc5C4)CC3)c2)no1 |
| 666 s | CCNc1cc(N2CCC(CCC(=O)NCc3cc(F)ccc3F)CC2)ncn1 |
| 556 s | Cc1cc(C)n(CC(=O)N2CCCn3ccnc3C2c2cnn(C)c2)n1 (stereo not given) |
